Results: BindingDB's records for doi:10.1111/cbdd.12708 (North-West University, 2016)

How the values were obtained:
Amine oxidase = biological target: T1, Amine oxidase (Homo sapiens, UniProt Q8TBI1); experiment: MAO Inhibition Assay
T1 sequence (Q8TBI1 whole entry): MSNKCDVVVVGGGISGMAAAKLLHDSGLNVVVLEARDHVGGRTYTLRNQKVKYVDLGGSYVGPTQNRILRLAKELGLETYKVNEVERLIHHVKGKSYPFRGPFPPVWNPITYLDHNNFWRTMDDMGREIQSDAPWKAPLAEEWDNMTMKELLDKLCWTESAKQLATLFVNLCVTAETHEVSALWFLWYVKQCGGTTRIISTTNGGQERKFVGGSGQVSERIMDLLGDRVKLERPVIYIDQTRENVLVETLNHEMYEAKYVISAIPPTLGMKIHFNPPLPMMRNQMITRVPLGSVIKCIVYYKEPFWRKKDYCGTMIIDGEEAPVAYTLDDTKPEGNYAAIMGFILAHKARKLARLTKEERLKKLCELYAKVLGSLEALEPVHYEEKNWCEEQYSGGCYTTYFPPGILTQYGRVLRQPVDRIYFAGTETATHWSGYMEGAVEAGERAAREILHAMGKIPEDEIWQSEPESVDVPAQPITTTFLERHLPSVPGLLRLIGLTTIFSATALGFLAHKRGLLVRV
Method: (§1) The protocol for measuring IC50 values for the inhibition of MAO-A and MAO-B has been reported in detail in a recent publication (26). The recombinant human MAO enzymes were used, and kynuramine served as non-selective MAO substrate. The MAOs oxidize kynuramine to ultimately yield a fluorescent metabolite, 4-hydroxyquinoline, which was measured by fluorescence spectrophotometry (kex = 310; kem = 400 nm).

[1] = biological target: T2, Amine oxidase [flavin-containing] A (Homo sapiens, UniProt P21397); experiment: MAO Inhibition Assay
T2 sequence (P21397 whole entry): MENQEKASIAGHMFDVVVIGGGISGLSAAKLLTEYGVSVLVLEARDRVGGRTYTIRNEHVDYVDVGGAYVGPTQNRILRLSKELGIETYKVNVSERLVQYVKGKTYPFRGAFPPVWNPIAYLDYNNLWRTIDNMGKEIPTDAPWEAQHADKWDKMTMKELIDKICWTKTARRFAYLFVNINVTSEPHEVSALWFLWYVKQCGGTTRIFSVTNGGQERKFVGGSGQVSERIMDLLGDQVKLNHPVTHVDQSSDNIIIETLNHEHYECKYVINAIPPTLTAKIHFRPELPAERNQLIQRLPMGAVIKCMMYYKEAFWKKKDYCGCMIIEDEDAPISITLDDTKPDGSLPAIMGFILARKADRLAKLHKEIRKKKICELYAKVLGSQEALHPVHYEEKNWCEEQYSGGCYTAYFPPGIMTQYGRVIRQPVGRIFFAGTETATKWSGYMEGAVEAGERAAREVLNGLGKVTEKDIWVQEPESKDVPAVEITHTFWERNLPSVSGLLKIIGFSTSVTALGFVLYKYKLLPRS
Method: as §1

Molecule `CC(C)=CCC(O)C1=CC(=O)c2c(O)ccc(O)c2C1=O` (centres undefined) [5,8-dihydroxy-2-(1-hydroxy-4-methylpent-3-enyl)naphthalene-1,4-dione] has an IC50 (Amine oxidase) of 1.01 µM and an IC50 [1] of 1.5 µM.

`CC1=C(CCl)C(=O)c2ccccc2C1=O` [2-(chloromethyl)-3-methyl-1,4-dihydronaphthalene-1,4-dione (5f)] gave an IC50 (Amine oxidase) of 10.8 µM.

For `COC1=CC(=O)c2ccccc2C1=O`, the IC50 (Amine oxidase) was 24.8 µM and the IC50 [1] was 20.4 µM.

In the case of `O=C1C=CC(=O)c2c(O)cccc21` [5-hydroxy-1,4-dihydronaphthalene-1,4-dione], the IC50 (Amine oxidase) is reported as 4.36 µM and the IC50 [1] is reported as 1.71 µM.

With `O=C1C(O)=C(Cl)C(=O)c2ccccc21` [2-chloro-3-hydroxy-1,4-dihydronaphthalene-1,4-dione (5g)] the IC50 (Amine oxidase) was 3.45 µM.

In the case of `O=C1C=CC(=O)c2ccccc21` [1,4-dihydronaphthalene-1,4-dione], the IC50 (Amine oxidase) is reported as 8.4 µM and the IC50 [1] is reported as 3.43 µM.

`O=C1C=CC(=O)c2c(O)ccc(O)c21` [5,8-dihydroxy-1,4-naphthoquinone] was tested, and the IC50 (Amine oxidase) was 0.86 µM.

`O=C1C(Cl)=C(OCCCCO)C(=O)c2ccccc21` [2-chloro-3-(4-hydroxybutoxy)-1,4-dihydronaphthalene-1,4-dione (5h)] was tested, and the IC50 (Amine oxidase) was 3.06 µM and the IC50 [1] was 5.06 µM.

For `CC1=CC(=O)c2c(O)cccc2C1=O`, the IC50 (Amine oxidase) was 1.09 µM and the IC50 [1] was 4.91 µM.

For `O=C1C(Cl)=C(Cl)C(=O)c2ccccc21` [2,3-dichloro-1,4-dihydronaphthalene-1,4-dione], the IC50 (Amine oxidase) was 2.61 µM and the IC50 [1] was 2 µM.

`CC1=CC(=O)c2ccccc2C1=O` [Vitamin K3] gave an IC50 (Amine oxidase) of 3.02 µM and an IC50 [1] of 10.2 µM.
